Experimental data reported in patent EP0554284B1, “PEPTIDE-BASED INHIBITORS OF HIV REPLICATION” (priority 1990, dated 1996).

Tests used:
[1] = test system: truncated functional form of TAR RNA; experiment: RNA gel mobility shift assay, TAR binding; design: species or system HIV; conditions: judged relative to tat(1-86) and the oligopeptide representing the tat basic domain; result in words
Experimental: This assay generally involves the incubation of a selected oligopeptide with gel-purified, radio-labelled TAR RNA, or tat-binding fragment of TAR RNA, that has been produced either by direct synthesis or through transcription of a corresponding DNA template. Samples are loaded onto non-denaturing polyacrylamide gel and subjected to electrophoresis, and then migration of labelled RNA through the gel is visualized on gel-exposed, X-ray film. Oligopeptides which bind TAR are identified in this assay by their characteristic, retarded migration on the gel, relative to TAR RNA to which no oligopeptide has bound. In this mobility shift assay, oligopeptides having an "enhanced" affinity for binding TAR RNA will resolve on the gel as bands which, in addition to displaying the retarded migration pattern characteristic of TAR-binding oligopeptides, will also appear with greater intensity and/or size than a band containing TAR RNA bound to tat (1-86).
(§1) TAR-binding affinity of the oligopeptides relative to HIV tat(1-86) and relative to tat fragments representing the tat basic domain, was evaluated by RNA gel mobility shift assay using as ligand a truncated functional form of TAR RNA having the sequence shown below.
Synthesis of the TAR fragment and its variant analogue was accomplished as described by Roy et al. in Genes and Development, 1990, 4:1365. […]

yeast tRNA = experiment: TAR binding compared with yeast tRNA binding (specificity); conditions: result in words
HIV (strain NL4-3) = assay type: cell-based
Source text: Controls used water in place of peptide.

[2] = test system: variant of TAR which does not bind tat; experiment: RNA gel mobility shift assay, binding to non-functional TAR variant (specificity); design: species or system HIV; conditions: relative to binding to the non-functional TAR variant; result in words
Experimental: as §1
Synthesis of the TAR fragment and its variant analogue was accomplished as described by Roy et al. in Genes and Development, 1990, 4:1365. The TAR-binding assay was also performed in the manner reported by Roy et al., supra, which is incorporated herein by reference.

tat = conditions: literature, Green et al; cited from earlier work

## CC(=O)N[C@H](CCCNC(=N)N)C(=O)N[C@H](CCCNC(=N)N)C(=O)N[C@H](CCCNC(=N)N)C(=O)N[C@H](CCCNC(=N)N)C(=O)N[C@H](CCCNC(=N)N)C(=O)N[C@H](CCCNC(=N)N)C(=O)N[C@H](CCCNC(=N)N)C(=O)N[C@H](CCCNC(=N)N)C(=O)N[C@H](CCCNC(=N)N)C(N)=O [peptide 4C, acetyl-[D-Arg]9-NH2]
[1]
  TAR-binding affinity: comparable to the basic domain of wild type tat
Yeast tRNA
  specificity of binding: confirmed
HIV (strain NL4-3); HuT78 cells pretreated with 5µM peptide for 7 or 14 days, 10µM after infection, p24 at four and seven days after infection
  inhibition of viral replication, as measured by p24 assay: ≥ 95%
HIV (strain NL4-3); visual inspection of infected HuT78 cells, same treatment as p24 assay
  formation of syncytia: completely inhibited
[2]
  specificity for binding to the functional TAR fragment: comparable to the wild type basic domain

## CC(=O)N[C@H](CCCNC(=N)N)C(=O)N[C@H](CCCCN)C(=O)N[C@H](CCCCN)C(=O)N[C@H](CCCNC(=N)N)C(=O)N[C@H](CCCNC(=N)N)C(=O)N[C@H](CCC(N)=O)C(=O)N[C@H](CCCNC(=N)N)C(=O)N[C@H](CCCNC(=N)N)C(=O)N[C@H](CCCNC(=N)N)C(N)=O [peptide 4G]
HIV (strain NL4-3); 5µM pretreatment of HuT78 cells, 7 or 14 days, result in words
  effects on HIV inhibition: positive effects on HIV inhibition

## Arg-Lys-Lys-Arg-Arg-Gln-Arg-Arg-Arg
tat
  tat antagonist activity: Weak tat antagonist activity
